Results reported in US20250019350A1, “SYNTHESIS OF THE PROSTATE SPECIFIC MEMBRANE ANTIGEN (PSMA) RADIOLABELED INHIBITOR [18F]DCFPYL” (Progenics Pharmaceuticals, Inc, priority 2023, published 2025).
Where “and” joins values, the source holds several entries; their conditions need not be identical. Equal entries are not always repeated.

Assay: Radiolysis / stability of [18F]DCFPyL over time by HPLC with radiodetection (RCP, free 18F, radioactive impurities)
Format: physicochemical
Protocol: Those of ordinary skill in the art will be aware of techniques and systems for determining the radiochemical purity of a composition. In some cases, the radiochemical purity is determined using an HPLC associated with a radio-detector. Generally, the radiochemical purity is determined under ambient conditions (e.g., ambient temperature, ambient humidity, ambient light, etc.), such as in samples stored under such conditions.
Stability was assessed using reverse phase HPLC on a C18 column with a phosphate buffer/acetonitrile gradient mobile phase, and the elution profile was monitored using both UV and radiochemical detectors. Samples were analyzed either by direct injection onto the HPLC, dilution and injection or including the addition of tetraethylammonium fluoride (TEAF) into the sample before injection.
Known amounts of free ^18F either alone or spiked with TEAF were injected onto the analytic column and the eluent from the column collected over the course of a chromatogram and assaying the radioactivity using a Capintec. […] Adding TEAF into the analytic samples was incorporated into subsequent studies examining potential radiolysis of [^18F]DCFPyL to overcome some of the limitations of free ^18F quantification.
Analytical HPLC method was used. The method employs UV detection at 264 nm for chemical impurities, and an Eckert & Ziegler model B-FC-1000 gamma detector for radiochemical assays.

[1] = 110 mCi/mL in 50 mg/mL pH 5.8 ascorbic acid, T = 3.0 h
[2] = 110 mCi/mL in 50 mg/mL pH 5.8 ascorbic acid, T = 3.5 h
[3] = 110 mCi/mL in 50 mg/mL pH 5.8 ascorbic acid, T = 4.0 h
[4] = 147 mCi/mL in 0.9% Sodium Chloride, USP, no ascorbic acid, T = 0 h
[5] = 147 mCi/mL in 0.9% Sodium Chloride, USP, no ascorbic acid, T = 0.5 h
[6] = 147 mCi/mL in 0.9% Sodium Chloride, USP, no ascorbic acid, T = 1.0 h
[7] = 147 mCi/mL in 0.9% Sodium Chloride, USP, no ascorbic acid, T = 1.5 h
[8] = 147 mCi/mL in 0.9% Sodium Chloride, USP, no ascorbic acid, T = 2.0 h
[9] = 147 mCi/mL in 0.9% Sodium Chloride, USP, no ascorbic acid, T = 2.5 h
[10] = 147 mCi/mL in 0.9% Sodium Chloride, USP, no ascorbic acid, T = 3.0 h
[11] = 147 mCi/mL in 0.9% Sodium Chloride, USP, no ascorbic acid, T = 3.5 h
[12] = 147 mCi/mL in 0.9% Sodium Chloride, USP, no ascorbic acid, T = 4.0 h
[13] = T = 0/1, 50 mg/mL ascorbic acid pH 5.8, 20% ethanol, 106.5 mCi/mL at EOS
[14] = T = 0, 0.5 mg/mL ascorbic acid pH 5.8, 20% ethanol, 105.8 mCi/mL at EOS
[15] = T = 0, 1 mg/mL ascorbic acid pH 5.8, 20% ethanol, 107.0 mCi/mL at EOS
[16] = T = 0, 5 mg/mL ascorbic acid pH 5.8, 20% ethanol, 99.0 mCi/mL at EOS
[17] = T = 0, 20 mg/mL sodium citrate, 20% ethanol, 104.8 mCi/mL at EOS, MPA = 0.25% of main peak
[18] = T = 0, 50 mg/mL ascorbic acid pH 5.8, 20% ethanol, 139.7 mCi/mL at EOS
[19] = T = 0 hr, 50 mg/mL ascorbic acid pH 5.8 in final product vial, 20% ethanol, 110 mCi/mL at EOS
[20] = T = 0 hr, 100 mg/mL ascorbic acid pH 2.0, 256 mCi/mL at EOS
[21] = T = 0 hr, 20% ethanol in saline, 52 mCi/mL at EOS
[22] = T = 0 hr, 20% ethanol in saline, 65 mCi/mL at EOS
[23] = T = 0 hr, 20% ethanol in saline, 85 mCi/mL at EOS
[24] = T = 0 hr, 100% ethanol, 325 mCi/mL at EOS
[25] = T = 0 hr, control without ascorbic acid, 36% ethanol in saline, 147 mCi/mL at EOS
[26] = T = 3, 50 mg/mL ascorbic acid pH 5.8, 20% ethanol, 106.5 mCi/mL at EOS
[27] = T = 4, 50 mg/mL ascorbic acid pH 5.8, 20% ethanol, 106.5 mCi/mL at EOS
[28] = T = 6, 50 mg/mL ascorbic acid pH 5.8, 20% ethanol, 106.5 mCi/mL at EOS

O=C(O)CC[C@H](NC(=O)N[C@@H](CCCCNC(=O)c1ccc([18F])nc1)C(=O)O)C(=O)O [Lot 18F-DCFPyL, 2-(3-{1-carboxy-5-[(6-[18F]fluoro-pyridine-3-carbonyl)-amino]-pentyl}ureido)-pentanedioic acid]
free 18F accumulating over 4 hrs (50 mg/mL ascorbic acid pH 5.8, 20% ethanol, 111 mCi/mL at EOS): 0.26%
free 18F accumulating over 4 hrs (100 mg/mL ascorbic acid pH 2.0, 256 mCi/mL at EOS): 0.08%
18F-DCFPyL (110 mCi/mL in 50 mg/mL pH 5.8 ascorbic acid, T = 0 h): 99.73 area %
18F-DCFPyL (110 mCi/mL in 50 mg/mL pH 5.8 ascorbic acid, T = 0.5 h): 99.72 area %
18F-DCFPyL (110 mCi/mL in 50 mg/mL pH 5.8 ascorbic acid, T = 1.0 h): 96.74 area %
18F-DCFPyL (110 mCi/mL in 50 mg/mL pH 5.8 ascorbic acid, T = 1.5 h): 99.66 area %
18F-DCFPyL (110 mCi/mL in 50 mg/mL pH 5.8 ascorbic acid, T = 2.0 h): 99.76 area %
18F-DCFPyL (110 mCi/mL in 50 mg/mL pH 5.8 ascorbic acid, T = 2.5 h): 99.66 area %
18F-DCFPyL [1]: 99.30 area %
Free 18F [1]: 0.35 area %
18F-DCFPyL [2]: 99.46 area %
Free 18F [2]: 0.24 area %
18F-DCFPyL [3]: 99.43 area %
Free 18F [3]: 0.26 area %
18F-DCFPyL [4]: 94.17 area %
Free 18F [4]: 4.68 area %
18F-DCFPyL [5]: 90.65 area %
Free 18F [5]: 7.73 area %
18F-DCFPyL [6]: 90.71 area %
Free 18F [6]: 7.69 area %
18F-DCFPyL [7]: 89.59 area %
Free 18F [7]: 8.78 area %
18F-DCFPyL [8]: 89.50 area %
Free 18F [8]: 8.67 area %
18F-DCFPyL [9]: 88.79 area %
Free 18F [9]: 9.66 area %
18F-DCFPyL [10]: 88.94 area %
Free 18F [10]: 9.49 area %
18F-DCFPyL [11]: 88.90 area %
Free 18F [11]: 9.56 area %
18F-DCFPyL [12]: 89.06 area %
Free 18F [12]: 9.27 area %
Free 18F (256 mCi/mL in ethanol, ascorbic acid in process, T = 0 h): 0.29 area %
Free 18F (256 mCi/mL in ethanol, ascorbic acid in process, T = 0.5 h): 0.40 area %
Free 18F (256 mCi/mL in ethanol, ascorbic acid in process, T = 1.0 h): 0.31 area %
Free 18F (256 mCi/mL in ethanol, ascorbic acid in process, T = 1.5 h): 0.31 area %
Free 18F (256 mCi/mL in ethanol, ascorbic acid in process, T = 2.0 h): 0.31 area %
Free 18F (256 mCi/mL in ethanol, ascorbic acid in process, T = 2.5 h): 0.31 area %
Free 18F (256 mCi/mL in ethanol, ascorbic acid in process, T = 3.0 h): 0.29 area %
Free 18F (256 mCi/mL in ethanol, ascorbic acid in process, T = 3.5 h): 0.42 area %
Free 18F (256 mCi/mL in ethanol, ascorbic acid in process, T = 4.0 h): 0.40 area %
18F-DCFPyL (256 mCi/mL in ethanol, 100 mg/mL pH 2.0 ascorbic acid in collection vial and HLB wash, T = 0 h): 99.71 area %
18F-DCFPyL (256 mCi/mL in ethanol, 100 mg/mL pH 2.0 ascorbic acid in collection vial and HLB wash, T = 0.5 h): 99.60 area %
18F-DCFPyL (256 mCi/mL in ethanol, 100 mg/mL pH 2.0 ascorbic acid in collection vial and HLB wash, T = 1.0 h): 98.68 area %
18F-DCFPyL (256 mCi/mL in ethanol, 100 mg/mL pH 2.0 ascorbic acid in collection vial and HLB wash, T = 1.5 h): 98.58 area %
18F-DCFPyL (256 mCi/mL in ethanol, 100 mg/mL pH 2.0 ascorbic acid in collection vial and HLB wash, T = 2.0 h): 98.20 area %
18F-DCFPyL (256 mCi/mL in ethanol, 100 mg/mL pH 2.0 ascorbic acid in collection vial and HLB wash, T = 2.5 h): 98.71 area %
18F-DCFPyL (256 mCi/mL in ethanol, 100 mg/mL pH 2.0 ascorbic acid in collection vial and HLB wash, T = 3.0 h): 98.46 area %
18F-DCFPyL (256 mCi/mL in ethanol, 100 mg/mL pH 2.0 ascorbic acid in collection vial and HLB wash, T = 3.5 h): 97.96 area %
18F-DCFPyL (256 mCi/mL in ethanol, 100 mg/mL pH 2.0 ascorbic acid in collection vial and HLB wash, T = 4.0 h): 97.95 area %
RCP (4 hours, 5 mg/mL ascorbate pH 6 FPV prefill and 6 mg/mL pH 6 ascorbate as delivery solution): 98%
RCP (4 hours, 10 mg/mL pH 6 ascorbate in collection vial and 5 mg/mL pH 6 ascorbic acid in final product vial): 99%
% RCP (10 hours, 3.3 mg/mL ascorbic acid in FPV, 10 mg/mL pH 2 in collection vial): 97%
RCP (10 hours, 5 mg/mL, pH 6 ascorbate in the final product): 96%
% RCP (10 hours, 5.6 mg/mL ascorbic acid in FPV, 10 mg/mL pH 2 in collection vial): 98%
% RCP (10 hours, 7.8 mg/mL ascorbic acid in FPV, 10 mg/mL pH 2 in collection vial): 97%
RCP (10 hours, pH 2 ascorbate in collection vial, 5 mg/mL ascorbate pH 6 in FPV): 98%
% RCP (10 hours, pH 4.5): 98%
% RCP (10 hours, pH 5.5): 97%
% RCP (10 hours, pH 7.0): 97%
18F-DCFPyL (% RCP) [13]: 100.00%
Free F-18 [13]: 0.00%
18F-DCFPyL (% RCP) [14]: 100.00%
Free F-18 [14]: 0.00%
18F-DCFPyL (% RCP) [15]: 99.68%
Free F-18 [15]: 0.32%
Free F-18 (T = 0, 1 mg/mL sodium ascorbate, 20% ethanol, 111.5 mCi/mL at EOS): 0.57%
18F-DCFPyL (% RCP) [16]: 100.00%
Free F-18 [16]: 0.00%
Free F-18 (T = 0, 20 mg/mL sodium citrate, 20% ethanol, 104.8 mCi/mL at EOS): 10.22%
RT 3.4 radioactive impurity [17]: <MPA
RT 3.7 radioactive impurity [17]: <MPA
18F-DCFPyL (% RCP) [18]: 100.00%
Free F-18 [18]: 0.00%
RT 4.8 radioactive impurity (T = 0, 50 mg/mL ascorbic acid pH 5.8, 20% ethanol, 139.7 mCi/mL at EOS, MPA = 0.25% of main peak): <MPA
18F-DCFPyL (RCP) [19]: 99.7% and 99.73%
Free 18F [19]: < LLQ
RT 5.0 radioactive impurity [19]: 0.27%
18F-DCFPyL (RCP) (T = 0 hr, 50 mg/mL ascorbic acid pH 5.8 in final product vial, 20% ethanol, 110 mCi/mL at EOS, listed as [^18F]DCFPYL): 99.7%
18F-DCFPyL (RCP) [20]: 99.7% and 99.71%
Free 18F [20]: 0.29%
18F-DCFPyL (RCP) (T = 0 hr, 100 mg/mL ascorbic acid pH 2.0, 256 mCi/mL at EOS, listed as [^18F]DCFPYL): 99.7%
18F-DCFPyL (RCP) [21]: 99.31%
Free F-18 [21]: 0.23%
RT 5.0 radioactive impurity [21]: 0.46%
18F-DCFPyL (RCP) [22]: 98.75%
Free F-18 [22]: 0.91%
RT 5.0 radioactive impurity [22]: 0.34%
18F-DCFPyL (RCP) [23]: 97.56%
Free F-18 [23]: 2.10%
RT 5.0 radioactive impurity [23]: 0.34%
18F-DCFPyL (RCP) [24]: 98.37%
Free F-18 [24]: 1.63%
18F-DCFPyL (RCP) [25]: 94% and 94.17%
Free F-18 [25]: 4.68%
RT 5.0 radioactive impurity [25]: 0.50%
RT 5.9 radioactive impurity [25]: 0.64%
18F-DCFPyL (RCP) (T = 0 hr, control without ascorbic acid, 36% ethanol in saline, 147 mCi/mL at EOS, listed as [^18F]DCFPYL): 94%
Free F-18 (T = 0.5, 5 mg/mL sodium ascorbate, 20% ethanol, 114.6 mCi/mL at EOS): 0.39%
18F-DCFPyL (% RCP) [26]: 100.00%
Free F-18 [26]: 0.00%
18F-DCFPyL (% RCP) [27]: 99.75%
Free F-18 [27]: 0.25%
18F-DCFPyL (% RCP) [28]: 99.72%
Free F-18 [28]: 0.28%
